“Also recorded” adds a separate entry of the source.
Experiments:
human PBMC = assay: TNF production by human PBMC (ELISA); format: cell-based; conditions: 24 hours
Procedure: (§1) For murine BMDCs, bone morrow cells were cultured in Petri dishes in 10 ml DMEM cell culture medium containing 10 ng/ml of murine GM-CSF (R&D Systems). On day 3 of culture, this was replaced with fresh GM-CSF medium. Loosely adherent cells were transferred to a fresh Petri dish and cultured for an additional 4 d. Human PBMC were purchased from Stemcell Technologies. THP-1 (ATCC) cells were differentiated by treatment with 100 nM PMA (Sigma) in RPMI cell culture medium [RPMI containing 10% vol/vol FBS (Gemini Bio Products), 1% penicillin and streptomycin (Life Technologies)] for 24 hours. After that, cells were washed with PBS and cultured in fresh RPMI cell culture medium for 24 hours before use in studies.
[…] Mouse TNF, IL-6, or IFN-β, or human TNF in the supernatants were measured by ELISA kits according to the manufacturer's instructions (eBioscience and PBL Assay Science). Pretreatment with 20 μg/ml anti-TLR1, anti-TLR2 or isotype control antibody (eBioscience) was for 1 hour. Unless otherwise indicated, mouse cells were from wild type C57BL/6J mice.

[1] = system: mouse peritoneal macrophages; assay: TNF production by mouse peritoneal macrophages (ELISA); format: cell-based; conditions: Peritoneal macrophage, 4 hours, read-out: EC50, dose-dependent TNF production
Procedure: (§2) Thioglycollate-elicited macrophages were recovered 4 days after i.p. injection of 2 ml BBL thioglycollate medium, brewer modified (4% wt/vol; BD Biosciences) by peritoneal lavage with 5 ml phosphate buffered saline (PBS). The peritoneal macrophages were cultured in DMEM cell culture medium [DMEM containing 10% vol/vol FBS (Gemini Bio Products), 1% vol/vol penicillin and streptomycin (Life Technologies)] at 37° C. and 95% air/5% CO2.
(§3) Cells were seeded onto 96-well plates at 1×10^5 cells per well and stimulated with a Diprovocim (dissolved in DMSO, and final DMSO concentrations (0.2%) were kept constant in all experiments) for 4 h. Mouse TNF, IL-6, or IFN-β, or human TNF in the supernatants were measured by ELISA kits according to the manufacturer's instructions (eBioscience and PBL Assay Science). Pretreatment with 20 μg/ml anti-TLR1, anti-TLR2 or isotype control antibody (eBioscience) was for 1 hour. Unless otherwise indicated, mouse cells were from wild type C57BL/6J mice.

mouse BMDC = assay: TNF production by mouse bone marrow-derived dendritic cells (ELISA); format: cell-based; conditions: 4 hours, read-out: EC50, dose-dependent TNF production
Procedure: as §1, §3

[2] = system: mouse peritoneal macrophages; assay: IFN-β secretion by mouse peritoneal macrophages (ELISA); format: cell-based; conditions: 4 hours
Procedure: as §2, §3

human TLR1/TLR2 = molecular target: T1, human TLR1/TLR2 (Homo sapiens, UniProt O60603+Q15399); assay: TNF in THP-1 cells pretreated with anti-TLR1 or anti-TLR2 antibody; format: cell-based; conditions: 250 pM, 4 hours; antibody 20 μg/ml, 1 hour pretreatment
T1 construct: TNF in the supernatants of human THP-1 cells pretreated with control antibody, anti-TLR1 (20 μg/ml), or anti-TLR2 (20 μg/ml); host or cells: THP-1 cells differentiated with 100 nM PMA
Procedure: as §3

[3] = system: MAPK and canonical NF-κB signaling; assay: Western blotting of THP-1 cell lysates; format: cell-based, human; conditions: THP-1 cells, 5 nM
Procedure: (§4) Mouse peritoneal macrophages or human THP-1 cells (1×10^6 per well) were stimulated in 12-well plates with a Diprovocim at 500 nM for mouse cells or 5 nM for human cells for the indicated times and lysed directly in sample buffer (Sigma). Cell lysates were separated by SDS-PAGE and transferred to nitrocellulose membranes. Membranes were probed with the following antibodies: phospho-IKKα (Ser176)/IKKβ (Ser177), IκBα, phospho-p38 (Thr180/Tyr182), phospho-JNK (Thr183/Tyr185), phospho-ERK1/2 (Thr202/Tyr204) (Cell Signaling Technology) and β-Actin (Sigma).

[4] = system: MAPK and canonical NF-κB signaling; assay: Western blotting of mouse peritoneal macrophage lysates; format: cell-based; conditions: mouse peritoneal macrophages, 500 nM
Procedure: as §4

C57BL/6J mice = assay: Immunization with OVA and measurement of antibody response; format: in vivo, mouse
Procedure: EndoFit ovalbumin (OVA) with 98% purity minimum (SDS-PAGE) and endotoxin levels <1 EU/mg was purchased from Invivogen. Mice (4 mice per group) were immunized i.m. with 100 μg OVA mixed with vehicle (DMSO:Tween 80:saline=1:1:8), with 10 mg/kg Diprovocim, or with 2 mg/kg Alum (Alhydrogel adjuvant 2%, Invivogen). After 14 days, serum titers of OVA-specific IgG, IgG1, or IgG2b (SouthernBiotech) were measured by ELISA.

B16-OVA melanoma = assay: B16-OVA melanoma, post-tumor treatment (immunization day 3 after tumor inoculation); format: in vivo, mouse; conditions: post-tumor treatment
Procedure: C57BL/6J mice (n=8 mice per treatment) were injected s.c. with 2×10^5 B16-OVA melanoma cells on day 0. For pre-tumor treatment, mice were immunized i.m. with OVA (100 μg) mixed with vehicle or Diprovocim (10 mg/kg) or alum (2 mg/kg) on the same day prior to tumor injection. Mice received a booster immunization seven days later in which anti-PD-L1 (200 μg) was administered on days 3, 6 and 9 after tumor inoculation by i.p. injection. For post-tumor treatment, initial immunization was on day 3 after tumor inoculation, with a booster seven days later. Anti-PD-L1 (200 μg) was administered on days 3, 6, 9, 12, and 15 after tumor inoculation by i.p. injection. […] P values for tumor volume analysis apply to the final time point as indicated in graphs and were calculated by Student's t test. P values for survival analysis were calculated by Kaplan-Meier analysis. All results are representative of two independent studies.
For post-treatment, 10 mg/kg Diprovocim-1 or 2 mg/kg Alum with OVA (100 μg) was injected i.m. into mice on day 3 after tumor inoculation. Mice received a booster shot seven days after the first immunization. On day 3, 6, 9, 12 and 15 after tumor inoculation, mice were also injected i.p. with 200 μg anti-mPD-L1 in 100 μl saline.
Tumors were measured with a digital caliper (Fisher) and the tumor sizes were calculated using the following formula: volume=0.5×length×width^2. […]

[5] = system: B16-OVA and B16F10 tumor cells; assay: Re-challenge of tumor-free survivors with B16-OVA and B16 cells; format: in vivo, mouse; conditions: survivors of Diprovocim+OVA plus anti-PD-L1, no further therapy
mice = assay: In vivo adjuvant activity and toxicity in mice when co-injected with an immunogen; conditions: compared with LPS administration

T1 sequence (Q15399 25-786): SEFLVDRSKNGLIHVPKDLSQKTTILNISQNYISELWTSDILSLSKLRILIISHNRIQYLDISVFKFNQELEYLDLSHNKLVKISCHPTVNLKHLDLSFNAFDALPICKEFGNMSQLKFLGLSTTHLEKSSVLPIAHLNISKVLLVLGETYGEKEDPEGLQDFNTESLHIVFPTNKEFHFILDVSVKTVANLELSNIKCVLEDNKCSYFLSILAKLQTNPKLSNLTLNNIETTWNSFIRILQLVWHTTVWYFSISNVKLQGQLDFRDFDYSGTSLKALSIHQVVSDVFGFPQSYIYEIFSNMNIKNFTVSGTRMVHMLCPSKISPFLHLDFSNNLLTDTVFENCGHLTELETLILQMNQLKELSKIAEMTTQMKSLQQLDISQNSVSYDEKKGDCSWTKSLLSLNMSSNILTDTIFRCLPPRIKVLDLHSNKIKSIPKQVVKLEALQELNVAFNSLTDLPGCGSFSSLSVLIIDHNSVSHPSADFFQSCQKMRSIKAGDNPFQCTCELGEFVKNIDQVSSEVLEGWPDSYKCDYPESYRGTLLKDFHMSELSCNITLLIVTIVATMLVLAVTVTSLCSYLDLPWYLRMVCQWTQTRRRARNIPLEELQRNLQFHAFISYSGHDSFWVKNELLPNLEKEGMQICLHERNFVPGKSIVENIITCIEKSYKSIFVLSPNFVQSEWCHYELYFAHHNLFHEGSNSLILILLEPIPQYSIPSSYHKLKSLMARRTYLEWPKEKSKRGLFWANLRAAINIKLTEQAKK
T1 sequence (O60603 21-784): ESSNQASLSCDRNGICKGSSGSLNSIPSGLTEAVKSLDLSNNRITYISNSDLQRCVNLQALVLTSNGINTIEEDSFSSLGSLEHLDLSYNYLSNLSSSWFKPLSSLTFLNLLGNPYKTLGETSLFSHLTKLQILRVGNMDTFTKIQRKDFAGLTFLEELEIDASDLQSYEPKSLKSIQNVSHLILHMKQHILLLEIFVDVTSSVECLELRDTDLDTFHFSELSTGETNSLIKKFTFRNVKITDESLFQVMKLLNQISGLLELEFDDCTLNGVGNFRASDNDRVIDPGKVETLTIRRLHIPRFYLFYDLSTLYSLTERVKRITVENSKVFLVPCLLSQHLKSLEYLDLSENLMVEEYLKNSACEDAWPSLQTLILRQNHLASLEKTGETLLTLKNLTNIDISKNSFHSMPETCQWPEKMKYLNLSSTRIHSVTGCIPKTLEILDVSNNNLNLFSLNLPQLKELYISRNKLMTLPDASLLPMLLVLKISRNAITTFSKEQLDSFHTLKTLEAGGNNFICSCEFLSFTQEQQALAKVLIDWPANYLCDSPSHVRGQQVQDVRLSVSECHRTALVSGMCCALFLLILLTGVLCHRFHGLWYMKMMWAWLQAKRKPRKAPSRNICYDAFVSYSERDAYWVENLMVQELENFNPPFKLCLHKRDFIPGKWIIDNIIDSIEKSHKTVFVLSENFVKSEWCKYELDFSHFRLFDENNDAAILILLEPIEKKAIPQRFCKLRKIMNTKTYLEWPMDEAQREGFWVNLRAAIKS

Structure (SMILES): O=C(N[C@H]1C[C@@H]1c1ccccc1)[C@@H]1CN(C(=O)c2ccc(C(=O)N3C[C@@H](C(=O)N[C@H]4C[C@@H]4c4ccccc4)[C@H](C(=O)N[C@H]4C[C@@H]4c4ccccc4)C3)cc2)C[C@H]1C(=O)N[C@H]1C[C@@H]1c1ccccc1 [Diprovocim-1, (3S,3'S,4S,4'S)-1,1′-Terephthaloylbis(N^3,N^4-bis((1S,2R)-2-phenylcyclo-propyl)pyrrolidine-3,4-dicarboxamide)]
- activation of TNF production compared with Pam3CSK4 (human PBMC): more potent and efficacious; also recorded: more potent than Pam3CSK4
- EC50 (human PBMC; read-out: EC50, dose-dependent TNF production): 0.875 nM
- EC50 [1]: 1.3 nM
- EC50 (mouse BMDC): 6.7 nM
- type I IFN (IFN-β) production [2]: failed to stimulate type I IFN production
- type I IFN (IFN-β) production ([2]; listed as Diprovocim): does not stimulate IFN-β secretion
- effect on THP-1 cells (TNF) after TLR1 or TLR2 antibody (human TLR1/TLR2): significantly reduced
- phosphorylation of signaling proteins and IκBα degradation [3]: induced phosphorylation of IκKα, IKKβ, p38, JNK, and ERK, as well as degradation of IκBα
- phosphorylation of signaling proteins and IκBα degradation [4]: induced phosphorylation of IκKα, IKKβ, p38, JNK, and ERK, as well as degradation of IκBα
- adjuvant activity in antigen-specific antibody production in TLR2-deficient mice (C57BL/6J mice; Tlr2−/− mice): abrogated
- serum OVA-specific IgG compared to OVA plus vehicle (C57BL/6J mice; wild type mice, i.m. with 100 μg OVA, Diprovocim 10 mg/kg or alum 2 mg/kg, day 14): highly elevated
- effect on tumor growth, survival rate, and survival time compared with alum (B16-OVA melanoma): superior to that of alum
- memory response on tumor re-challenge [5]: antigen-specific memory responses that protect the host from relapse of tumor growth
- overt toxicity when used as an adjuvant (mice): did not display the overt toxicity

From patent US20210315992A1, “ADJUVANT EFFECT OF THE TLR1/2 AGONIST DIPROVOCIM SYNERGIZES WITH CHECKPOINT-INHIBITING ANTIBODIES TO ELIMINATE DISEASE” (The Board of Regents of the University of Texas System, priority 2018, published 2021)
